From ChEMBL document CHEMBL1151662, “Insect Antifeedant Activity of Four Prieurianin-Type Limonoids” (1985)

What was measured:
Type in all cases: functional
Heliothis virescens [1] = test: Insecticidal activity against tobacco budworm third instar larvae at 19.8 ug/cm2 applied on upper surface of circular leaf disk after 2 days
Heliothis virescens [2] = test: Insecticidal activity against tobacco budworm third instar larvae at 19.8 ug/cm2 applied on upper surface of circular leaf disk after 6 days
Heliothis virescens [3] = test: Insecticidal activity against tobacco budworm third instar larvae at 6 ug/cm2 applied on upper surface of circular leaf disk after 2 days
Heliothis virescens [4] = test: Insecticidal activity against tobacco budworm third instar larvae at 6 ug/cm2 applied on upper surface of circular leaf disk after 6 days
Heliothis virescens [5] = test: Insecticidal activity against tobacco budworm third instar larvae at 1.5 ug/cm2 applied on upper surface of circular leaf disk after 2 days
Heliothis virescens [6] = test: Insecticidal activity against tobacco budworm third instar larvae at 1.5 ug/cm2 applied on upper surface of circular leaf disk after 6 days
Spodoptera eridania [7] = test: Insecticidal activity against southern armyworm third instar larvae at 19.8 ug/cm2 applied on upper surface of circular leaf disk after 2 days
Spodoptera eridania [8] = test: Insecticidal activity against southern armyworm third instar larvae at 19.8 ug/cm2 applied on upper surface of circular leaf disk after 6 day
Spodoptera eridania [9] = test: Insecticidal activity against southern armyworm third instar larvae at 6 ug/cm2 applied on upper surface of circular leaf disk after 2 days
Spodoptera eridania [10] = test: Insecticidal activity against southern armyworm third instar larvae at 6 ug/cm2 applied on upper surface of circular leaf disk after 6 days
Spodoptera eridania [11] = test: Insecticidal activity against southern armyworm third instar larvae at 1.5 ug/cm2 applied on upper surface of circular leaf disk after 2 days
Spodoptera eridania [12] = test: Insecticidal activity against southern armyworm third instar larvae at 1.5 ug/cm2 applied on upper surface of circular leaf disk after 6 days
Epilachna varivestis [13] = test: Insecticidal activity against mexican bean beetle third instar larvae at 19.8 ug/cm2 applied on upper surface of circular leaf disk after 2 days
Epilachna varivestis [14] = test: Insecticidal activity against mexican bean beetle third instar larvae at 19.8 ug/cm2 applied on upper surface of circular leaf disk after 6 days
Epilachna varivestis [15] = test: Insecticidal activity against mexican bean beetle third instar larvae at 6 ug/cm2 applied on upper surface of circular leaf disk after 2 days
Epilachna varivestis [16] = test: Insecticidal activity against mexican bean beetle third instar larvae at 6 ug/cm2 applied on upper surface of circular leaf disk after 6 days
Epilachna varivestis [17] = test: Insecticidal activity against mexican bean beetle third instar larvae at 1.5 ug/cm2 applied on upper surface of circular leaf disk after 2 days
Epilachna varivestis [18] = test: Insecticidal activity against mexican bean beetle third instar larvae at 1.5 ug/cm2 applied on upper surface of circular leaf disk after 6 days

C/C=C(\C)C(=O)O[C@H]1C[C@@H](OC(C)=O)[C@@]2(C(=O)OC)CO[C@H]3[C@@H](O)[C@@](C)([C@]45O[C@@]4(C)[C@@H]4C[C@H]5O[C@@H]5OC=C[C@@]54O)[C@H]4[C@]1(CO[C@]4(O)C(=O)OC)[C@@H]32 [AZADIRACHTIN A]
Activity (Heliothis virescens [1]): 60%
Activity (Heliothis virescens [2]): 60%
Activity (Heliothis virescens [3]): 60%
Activity (Heliothis virescens [4]): 60%
Activity (Heliothis virescens [5]): 60%
Activity (Heliothis virescens [6]): 60%
Activity (Spodoptera eridania [7]): 90%
Activity (Spodoptera eridania [8]): 90%
Activity (Spodoptera eridania [9]): 60%
Activity (Spodoptera eridania [10]): 60%
Activity (Spodoptera eridania [11]): 60%
Activity (Spodoptera eridania [12]): 30%
Activity (Epilachna varivestis [13]): 90%
Activity (Epilachna varivestis [14]): 90%
Activity (Epilachna varivestis [15]): 90%
Activity (Epilachna varivestis [16]): 90%
Activity (Epilachna varivestis [17]): 30%
Activity (Epilachna varivestis [18]): 60%

C=C1[C@@H]([C@@]2(C)[C@@H](OC(C)=O)CC(=O)O[C@](C)(COC(C)=O)[C@@H]2C(=O)OC)[C@@H](OC=O)[C@H](OC(=O)[C@H](O)[C@H](C)CC)[C@@]2(C)[C@H](c3ccoc3)CC(=O)[C@]12O [PRIEURIANIN]
Activity (Heliothis virescens [1]): 60%
Activity (Heliothis virescens [2]): 60%
Activity (Heliothis virescens [3]): 30%
Activity (Heliothis virescens [4]): 60%
Activity (Heliothis virescens [5]): 30%
Activity (Heliothis virescens [6]): 0%
Activity (Spodoptera eridania [7]): 30%
Activity (Spodoptera eridania [8]): 0%
Activity (Spodoptera eridania [9]): 0%
Activity (Spodoptera eridania [10]): 0%
Activity (Spodoptera eridania [11]): 0%
Activity (Spodoptera eridania [12]): 0%
Activity (Epilachna varivestis [13]): 60%
Activity (Epilachna varivestis [14]): 60%
Activity (Epilachna varivestis [15]): 30%
Activity (Epilachna varivestis [16]): 30%
Activity (Epilachna varivestis [17]): 0%
Activity (Epilachna varivestis [18]): 0%

C=C1[C@@H]([C@@]2(C)C=CC(=O)O[C@]3(C)COC(=O)C[C@H]23)[C@@H](OC=O)[C@H](OC(=O)C(O)C(C)CC)[C@@]2(C)[C@@H](c3ccoc3)C[C@H](OC(C)=O)[C@]12O (some centres not stated) [ROHITIUKA 7]
Activity (Heliothis virescens [1]): 60%
Activity (Heliothis virescens [2]): 60%
Activity (Heliothis virescens [3]): 0%
Activity (Heliothis virescens [4]): 0%
Activity (Heliothis virescens [5]): 0%
Activity (Heliothis virescens [6]): 0%
Activity (Spodoptera eridania [7]): 0%
Activity (Spodoptera eridania [8]): 0%
Activity (Spodoptera eridania [9]): 0%
Activity (Spodoptera eridania [10]): 0%
Activity (Spodoptera eridania [11]): 0%
Activity (Spodoptera eridania [12]): 0%
Activity (Epilachna varivestis [13]): 0%
Activity (Epilachna varivestis [14]): 0%
Activity (Epilachna varivestis [15]): 0%
Activity (Epilachna varivestis [16]): 0%
Activity (Epilachna varivestis [17]): 0%
Activity (Epilachna varivestis [18]): 0%

C=C1[C@H]([C@@]2(C)[C@@H](OC(C)=O)CC(=O)O[C@]3(C)COC(=O)C[C@H]23)[C@@H](OC=O)[C@H](OC(=O)CC(C)C)[C@@]2(C)[C@@H](c3ccoc3)CC(=O)[C@@]12O [ROHITIUKIN]
Activity (Heliothis virescens [1]): 0%
Activity (Heliothis virescens [2]): 30%
Activity (Heliothis virescens [3]): 0%
Activity (Heliothis virescens [4]): 0%
Activity (Heliothis virescens [5]): 0%
Activity (Heliothis virescens [6]): 0%
Activity (Spodoptera eridania [7]): 0%
Activity (Spodoptera eridania [8]): 0%
Activity (Spodoptera eridania [9]): 0%
Activity (Spodoptera eridania [10]): 0%
Activity (Spodoptera eridania [11]): 0%
Activity (Spodoptera eridania [12]): 0%
Activity (Epilachna varivestis [13]): 0%
Activity (Epilachna varivestis [14]): 0%
Activity (Epilachna varivestis [15]): 0%
Activity (Epilachna varivestis [16]): 0%
Activity (Epilachna varivestis [17]): 0%
Activity (Epilachna varivestis [18]): 0%
